Experimental data published in patent US6521764B1, “Process for the preparation of fumagillin” (Sanofi-Synthelabo, priority 1999, dated 2003).

Assays:
[1] = 2-week stability study of Fumagillin samples obtained by various methods, Fumagillin content by HPLC before and after stressing; assay type: physicochemical; settings: for HPLC Assay, After 2 weeks at 40° C., ambient humidity / HPLC Assay, Initial: 3 equivalent acetic acid; for HPLC Assay, Initial: before stressing
Protocol: We carried out a 2-week stability study at 40 OC , ambient humidity, of selected samples obtained by various methods. The Fumagillin content of the samples was measured by HPLC before and after the stressing.

[2] = at -80 °C; cited from earlier work
[3] = sample liberated from methanol, crude product
[4] = sample liberated from methanol-dichloromethane 5:1, crude product
[5] = sample liberated from toluene, crude product
[6] = sample liberated in aqueous medium, followed by extraction with dichloromethane, concentration and crystallization in methanol

## CO[C@@H]1[C@H](OC(=O)/C=C/C=C/C=C/C=C/C(=O)O)CC[C@]2(CO2)[C@H]1[C@@]1(C)O[C@@H]1CC=C(C)C [Fumagillin]
[1]; [3]
  HPLC Assay, After 2 weeks at 40° C., ambient humidity: 85.1%
  HPLC Assay, Initial: 97.6%
[1]; [4]
  HPLC Assay, After 2 weeks at 40° C., ambient humidity: 49.9%
  HPLC Assay, Initial: 96.3%
[1]; [5]
  HPLC Assay, After 2 weeks at 40° C., ambient humidity: 61.0%
  HPLC Assay, Initial: 92.6%
[1]; [6]
  HPLC Assay, After 2 weeks at 40° C., ambient humidity: 54.9%
  HPLC Assay, Initial: 96.9%
[1]; samples obtained by the alcoholic method, 2 weeks at 40 °C, ambient humidity
  Stability compared with samples obtained by other methods: considerably more stable
[2]
  Stability on storage: stable
